Results as given in ChEMBL document CHEMBL1153256, “Unusual stereochemical preferences of decahydroisoquinoline-3-cargoxylic acid competitive NMDA antagonists” (Bioorg Med Chem Lett, 1993).

Columns and labels:
Mus musculus = species: Mus musculus; assay: Minimum effective dose to prevent NMDA-induced lethality in mice; assay type: functional
Glutamate NMDA receptor = assay: Inhibition of [3H]-CGS- 19755 binding to rat brain membrane NMDA receptor
Rattus norvegicus = species: Rattus norvegicus; assay: Compound was tested for relative potency as NMDA antagonist by determining its ability to inhibit depolarizations induced by 40 uM NMDA in a cortical slice preparation.; assay type: functional

| SMILES | MED (Mus musculus) [mg/kg] | IC50 (Glutamate NMDA receptor) [µM] | IC50 (Rattus norvegicus) [µM] |
| --- | --- | --- | --- |
| O=C(O)C1CC2CC(Cc3nnn[nH]3)CCC2CN1 (racemic; form 1) | 40 | 3.41 | 4.8 |
| O=C(O)C1CC2CC(CP(=O)(O)O)CCC2CN1 (racemic; form 1) | 1.25 | 0.055 | 0.15 |
| O=C(O)C1CC2CC(Cc3nnn[nH]3)CCC2CN1 (racemic; form 2) | 2.5 | 0.94 | 1.39 |
| O=C(O)C1CC2CC(CP(=O)(O)O)CCC2CN1 (racemic; form 2) | 2.5 | 0.82 | 1.7 |
| O=C(O)C1CC2CC(Cc3nnn[nH]3)CCC2CN1 (single isomer, unassigned; (+)) | >160 | 22.6 | > 100 |
| O=C(O)C1CC2CC(CP(=O)(O)O)CCC2CN1 (single isomer, unassigned; (-)) | 0.625 | 0.025 | 0.22 |
| O=C(O)C1CC2CC(CP(=O)(O)O)CCC2CN1 (stereo in doubt; (+)-1 R) | 80 | 8.4 | 33 |
| O=C(O)C1CC2CC(CP(=O)(O)O)CCC2CN1 (stereo in doubt; (+)-3 S) |  | 8.7 |  |
| O=C(O)C1CC2CC(Cc3nnn[nH]3)CCC2CN1 (stereo in doubt; (+)-4 S) |  | 5.16 | 28 |
| O=C(O)C1CC2CC(Cc3nnn[nH]3)CCC2CN1 (stereo in doubt; (-)-2 S) | 1.25 | 0.42 | 0.82 |
| O=C(O)C1CC2CC(CP(=O)(O)O)CCC2CN1 (stereo in doubt; (-)-3 R) |  | 0.67 |  |
| O=C(O)C1CC2CC(Cc3nnn[nH]3)CCC2CN1 (stereo in doubt; (-)-4 R) |  | 3.32 | 6.2 |
